Source: patent US11497752B2, “Compounds and uses thereof” (Foghorn Therapeutics Inc., priority 2018, dated 2022)

Tests used:
BRG-1 = BRG-1 (Homo sapiens, UniProt P51532); assay: ATPase catalytic activity of BRG-1 (ADP-Glo in vitro biochemical assay)
BRM = BRM (Homo sapiens, UniProt P51531); assay: ATPase catalytic activity of BRM (ADP-Glo in vitro biochemical assay)
Chain of BRM (P51531 whole entry): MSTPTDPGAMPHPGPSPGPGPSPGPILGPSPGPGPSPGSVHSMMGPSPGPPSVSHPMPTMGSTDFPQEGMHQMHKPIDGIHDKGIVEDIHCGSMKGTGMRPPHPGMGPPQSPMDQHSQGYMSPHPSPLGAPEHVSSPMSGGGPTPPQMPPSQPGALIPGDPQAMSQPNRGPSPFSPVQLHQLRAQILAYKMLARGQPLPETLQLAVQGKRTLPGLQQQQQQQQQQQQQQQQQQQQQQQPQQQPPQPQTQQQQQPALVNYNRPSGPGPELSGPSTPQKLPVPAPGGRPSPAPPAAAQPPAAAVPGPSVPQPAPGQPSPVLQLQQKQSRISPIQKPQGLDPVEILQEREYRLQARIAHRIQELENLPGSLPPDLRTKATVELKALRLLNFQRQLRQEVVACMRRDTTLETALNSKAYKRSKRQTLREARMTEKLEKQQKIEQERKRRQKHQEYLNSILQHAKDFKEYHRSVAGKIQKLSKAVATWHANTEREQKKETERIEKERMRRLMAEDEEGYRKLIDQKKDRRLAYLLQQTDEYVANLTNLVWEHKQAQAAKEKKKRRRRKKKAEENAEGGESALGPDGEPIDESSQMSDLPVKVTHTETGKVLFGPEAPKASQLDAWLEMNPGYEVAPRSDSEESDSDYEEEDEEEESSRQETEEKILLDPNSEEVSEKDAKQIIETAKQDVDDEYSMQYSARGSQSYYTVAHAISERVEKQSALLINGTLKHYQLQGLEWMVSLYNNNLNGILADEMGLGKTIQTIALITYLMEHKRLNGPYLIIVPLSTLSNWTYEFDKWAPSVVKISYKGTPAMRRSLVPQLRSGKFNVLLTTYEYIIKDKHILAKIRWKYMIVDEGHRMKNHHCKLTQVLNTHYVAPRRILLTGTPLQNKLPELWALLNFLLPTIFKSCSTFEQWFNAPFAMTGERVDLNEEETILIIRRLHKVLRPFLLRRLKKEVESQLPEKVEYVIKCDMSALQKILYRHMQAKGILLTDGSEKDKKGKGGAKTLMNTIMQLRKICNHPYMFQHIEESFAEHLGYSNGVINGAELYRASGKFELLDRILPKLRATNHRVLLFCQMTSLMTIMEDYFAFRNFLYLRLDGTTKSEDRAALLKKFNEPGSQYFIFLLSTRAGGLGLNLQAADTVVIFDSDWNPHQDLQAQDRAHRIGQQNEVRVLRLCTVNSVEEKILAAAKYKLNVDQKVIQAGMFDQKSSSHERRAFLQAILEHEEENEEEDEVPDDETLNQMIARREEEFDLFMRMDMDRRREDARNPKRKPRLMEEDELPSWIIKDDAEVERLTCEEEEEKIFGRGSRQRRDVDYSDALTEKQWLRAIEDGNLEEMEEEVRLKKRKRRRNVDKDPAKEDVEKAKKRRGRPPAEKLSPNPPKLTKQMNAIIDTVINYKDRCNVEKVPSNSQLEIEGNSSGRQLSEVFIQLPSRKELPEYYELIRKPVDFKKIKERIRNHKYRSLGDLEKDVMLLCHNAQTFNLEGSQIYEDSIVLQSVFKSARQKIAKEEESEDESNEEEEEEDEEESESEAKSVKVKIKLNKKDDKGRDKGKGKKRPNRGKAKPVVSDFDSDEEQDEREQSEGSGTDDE

Chain of BRG-1 (P51532 whole entry): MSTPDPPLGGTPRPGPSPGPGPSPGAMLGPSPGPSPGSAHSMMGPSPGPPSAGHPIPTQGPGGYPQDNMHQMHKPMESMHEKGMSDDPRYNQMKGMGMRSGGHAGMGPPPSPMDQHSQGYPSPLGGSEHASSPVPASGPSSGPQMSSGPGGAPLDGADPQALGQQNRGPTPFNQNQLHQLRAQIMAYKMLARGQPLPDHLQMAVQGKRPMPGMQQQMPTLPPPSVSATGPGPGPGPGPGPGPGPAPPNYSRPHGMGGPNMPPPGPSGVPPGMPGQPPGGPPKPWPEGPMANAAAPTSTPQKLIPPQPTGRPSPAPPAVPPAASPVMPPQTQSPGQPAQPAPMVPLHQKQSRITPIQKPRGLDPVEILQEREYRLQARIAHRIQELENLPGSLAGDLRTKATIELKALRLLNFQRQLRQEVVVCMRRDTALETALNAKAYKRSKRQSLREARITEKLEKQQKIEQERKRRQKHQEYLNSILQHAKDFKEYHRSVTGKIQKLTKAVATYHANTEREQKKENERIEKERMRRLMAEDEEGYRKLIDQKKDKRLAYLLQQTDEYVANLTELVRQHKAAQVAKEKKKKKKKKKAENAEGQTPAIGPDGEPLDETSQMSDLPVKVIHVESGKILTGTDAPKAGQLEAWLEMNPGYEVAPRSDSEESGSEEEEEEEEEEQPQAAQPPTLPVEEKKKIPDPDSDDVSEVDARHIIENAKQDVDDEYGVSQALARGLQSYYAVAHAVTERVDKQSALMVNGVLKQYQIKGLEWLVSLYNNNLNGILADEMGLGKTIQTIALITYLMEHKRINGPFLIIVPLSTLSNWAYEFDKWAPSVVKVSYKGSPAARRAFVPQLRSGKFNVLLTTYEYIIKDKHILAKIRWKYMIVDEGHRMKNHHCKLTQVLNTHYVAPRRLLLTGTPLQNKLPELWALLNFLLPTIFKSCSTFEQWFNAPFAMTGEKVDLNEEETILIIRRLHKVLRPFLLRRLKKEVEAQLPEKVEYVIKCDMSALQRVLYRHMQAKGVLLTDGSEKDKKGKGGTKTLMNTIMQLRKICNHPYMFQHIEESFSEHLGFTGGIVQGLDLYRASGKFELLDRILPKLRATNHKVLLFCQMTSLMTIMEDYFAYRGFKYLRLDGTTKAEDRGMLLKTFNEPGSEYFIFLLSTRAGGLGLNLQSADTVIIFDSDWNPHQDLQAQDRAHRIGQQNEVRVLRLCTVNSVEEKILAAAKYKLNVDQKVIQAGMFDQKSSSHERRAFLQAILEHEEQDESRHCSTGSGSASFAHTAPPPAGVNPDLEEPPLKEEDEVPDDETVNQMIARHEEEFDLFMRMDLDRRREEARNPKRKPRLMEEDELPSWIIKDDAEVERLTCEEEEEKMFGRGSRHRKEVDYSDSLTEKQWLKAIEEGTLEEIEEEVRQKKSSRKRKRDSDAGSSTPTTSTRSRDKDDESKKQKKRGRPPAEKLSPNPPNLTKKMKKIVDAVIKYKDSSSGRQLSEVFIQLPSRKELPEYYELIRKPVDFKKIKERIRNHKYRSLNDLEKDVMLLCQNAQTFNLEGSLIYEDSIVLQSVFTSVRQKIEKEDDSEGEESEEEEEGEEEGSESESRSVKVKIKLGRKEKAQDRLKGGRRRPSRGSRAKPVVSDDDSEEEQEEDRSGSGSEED

SMILES | IC50 (BRG-1) [nM] | BRG1 Max % Inhibition (BRG-1; Table 6) [%] | IC50 (BRM) [nM] | BRM Max % Inhibition (BRM; Table 6) [%] | BRG1 Max % Inhibition (BRG-1; Table 5) [%] | BRM Max % Inhibition (BRM; Table 5) [%]
N#Cc1cccc(-c2cccc(-c3csc(NC(=O)CNC(=O)c4ccc(N)cc4)n3)c2)c1 [Compound 157, 4-amino-N-(2-((4-(3′-cyano-[1,1′-biphenyl]-3-yl)thiazol-2-yl)amino)-2-oxoethyl)benzamide] | < 100 | >90 | < 100 | >95 |  | 
CSCC[C@H](NC(=O)c1ccc(N)cc1)C(=O)Nc1nc(-c2cccc(CNC(C)=O)c2)cs1 [Compound 120, (S)-N-(1-((4-(3-(acetamidomethyl)phenyl)thiazol-2-yl)amino)-4-(methylthio)-1-oxobutan-2-yl)-4-aminobenzamide] | 100 to 1000 | >90 | 100 to 1000 | >90 |  | 
Cn1cnc2ccc(-c3csc(NC(=O)CNC(=O)c4cccc(S(C)(=O)=O)c4)n3)cc2c1=O [Compound 93, N-(2-((4-(3-methyl-4-oxo-3,4-dihydroquinazolin-6-yl)thiazol-2-yl)amino)-2-oxoethyl)-3-(methylsulfonyl)benzamide] | 100 to 1000 | >90 | 100 to 1000 | >90 |  | 
CN(C)C1CCCN(c2cc(-c3cccc(-c4csc(NC(=O)CNC(=O)c5ccc(N)cc5)n4)c3)ccn2)C1 (stereo not shown) [Compound 225, 4-amino-N-[2-[[4-[3-[2-[3-(dimethylamino)-1-piperidyl]-4-pyridyl]phenyl]thiazol-2-yl]amino]-2-oxo-ethyl]benzamide] | 100 to 1000 | >90 | 100 to 1000 | >80 |  | 
Cc1cccc(C)c1-c1csc(NC(=O)CNC(=O)c2cccc(S(=O)(=O)N(C)C)c2)n1 [Compound 29, N-[2-[[4-(2,6-dimethylphenyl)thiazol-2-yl]amino]-2-oxo-ethyl]-3-(dimethylsulfamoyl)benzamide] | > 10000 |  | > 10000 |  | >60 | >50
O=C(CNC(=O)c1ccc2c(c1)CC(O)CN2)Nc1nc(-c2cccc(-c3ccncc3)c2)cs1 (stereo not shown) [Compound 105, 3-hydroxy-N-[2-oxo-2-[[4-[3-(4-pyridyl)phenyl]thiazol-2-yl]amino]ethyl]-1,2,3,4-tetrahydroquinoline-6-carboxamide] | 100 to 1000 | >50 | 100 to 1000 | >80 |  | 
COC(=O)C(C)(C)c1cc(-c2cccc(-c3csc(NC(=O)CNC(=O)c4ccc(N)cc4)n3)c2)ccn1 [Compound 182, methyl 2-(4-(3-(2-(2-(4-aminobenzamido)acetamido)thiazol-4-yl)phenyl)pyridin-2-yl)-2-methylpropanoate] | 100 to 1000 | >90 | < 100 | >95 |  | 
Nc1ccc(C(=O)NCC(=O)Nc2nc(-c3cccc(-c4ccn(C5CCOCC5)n4)c3)cs2)cc1 [Compound 162, 4-amino-N-(2-oxo-2-((4-(3-(1-(tetrahydro-2H-pyran-4-yl)-1H-pyrazol-3-yl)phenyl)thiazol-2-yl)amino)ethyl)benzamide] | < 100 | >95 | < 100 | >95 |  | 
CC(=O)NC[C@H](NC(=O)c1cccc(S(=O)(=O)N(C)C)c1)C(=O)Nc1nc(-c2ccccc2)cs1 [Compound 21, (S)—N-(3-acetamido-1-oxo-1-((4-phenylthiazol-2-yl)amino)propan-2-yl)-3-(N,N-dimethylsulfamoyl)benzamide] | > 10000 |  | > 10000 |  | >60 | >70
Nc1ccc(C(=O)NCC(=O)Nc2nc(-c3cccc(COc4ccncc4)c3)cs2)cc1 [Compound 197, 4-amino-N-[2-oxo-2-[[4-[3-(4-pyridyloxymethyl)phenyl]thiazol-2-yl]amino]ethyl]benzamide] | < 100 | >80 | < 100 | >90 |  | 
